Measurements reported in patent publication US20260297060A1, “COMPOUNDS FOR THE DEGRADATION OF MUTANT BRAF” (C4 THERAPEUTICS, INC., priority 2023, published 2026).
Like-named read-outs stand apart in the source and are kept apart here.

How the values were obtained:
BRAF V600E = biological target: T1, BRAF V600E (Homo sapiens, UniProt P15056+Q96SW2, V600E); assay: BRAF V600E HiBiT Degradation Assay; format: cell-based
T1 construct: knock-in of the HiBiT tag to the endogenous BRAF V600E locus; host or cells: A375.10 (A375 clonal line, CRISPR HiBiT knock-in at the endogenous BRAF V600E locus)
T1 sequence (P15056 whole entry V600E): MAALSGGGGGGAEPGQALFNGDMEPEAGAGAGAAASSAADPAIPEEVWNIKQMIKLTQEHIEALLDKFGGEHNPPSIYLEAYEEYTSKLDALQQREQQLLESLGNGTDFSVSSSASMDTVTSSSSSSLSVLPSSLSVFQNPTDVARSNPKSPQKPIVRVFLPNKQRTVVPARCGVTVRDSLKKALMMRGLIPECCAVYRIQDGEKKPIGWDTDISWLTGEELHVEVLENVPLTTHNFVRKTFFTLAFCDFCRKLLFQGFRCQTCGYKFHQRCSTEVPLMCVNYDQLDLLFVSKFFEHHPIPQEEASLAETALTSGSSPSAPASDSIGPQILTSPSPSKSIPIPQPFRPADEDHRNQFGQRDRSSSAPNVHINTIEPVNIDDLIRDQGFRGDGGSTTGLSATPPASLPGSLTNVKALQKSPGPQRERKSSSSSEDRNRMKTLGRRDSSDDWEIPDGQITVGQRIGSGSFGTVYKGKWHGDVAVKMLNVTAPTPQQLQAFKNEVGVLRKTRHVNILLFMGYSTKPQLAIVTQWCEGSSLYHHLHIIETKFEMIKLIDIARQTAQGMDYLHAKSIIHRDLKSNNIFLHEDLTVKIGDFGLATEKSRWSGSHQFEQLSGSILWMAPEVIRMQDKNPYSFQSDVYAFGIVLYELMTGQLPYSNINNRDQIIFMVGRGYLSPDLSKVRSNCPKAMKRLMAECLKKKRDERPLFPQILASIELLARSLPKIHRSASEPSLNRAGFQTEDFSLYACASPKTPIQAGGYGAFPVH
T1 sequence (Q96SW2 whole entry): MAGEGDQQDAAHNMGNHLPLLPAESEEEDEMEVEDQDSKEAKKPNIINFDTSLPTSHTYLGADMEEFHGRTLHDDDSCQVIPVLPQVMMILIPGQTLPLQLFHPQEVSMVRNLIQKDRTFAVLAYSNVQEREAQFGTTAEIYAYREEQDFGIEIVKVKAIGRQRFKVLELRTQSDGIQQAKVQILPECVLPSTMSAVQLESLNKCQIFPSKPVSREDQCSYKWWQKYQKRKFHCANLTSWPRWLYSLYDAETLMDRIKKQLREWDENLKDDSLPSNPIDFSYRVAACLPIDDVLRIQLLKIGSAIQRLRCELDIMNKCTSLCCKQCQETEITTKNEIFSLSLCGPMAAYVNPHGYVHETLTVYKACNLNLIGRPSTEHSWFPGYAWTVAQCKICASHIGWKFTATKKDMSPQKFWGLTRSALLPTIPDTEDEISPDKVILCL
T1 sequence (Q16531 whole entry partner): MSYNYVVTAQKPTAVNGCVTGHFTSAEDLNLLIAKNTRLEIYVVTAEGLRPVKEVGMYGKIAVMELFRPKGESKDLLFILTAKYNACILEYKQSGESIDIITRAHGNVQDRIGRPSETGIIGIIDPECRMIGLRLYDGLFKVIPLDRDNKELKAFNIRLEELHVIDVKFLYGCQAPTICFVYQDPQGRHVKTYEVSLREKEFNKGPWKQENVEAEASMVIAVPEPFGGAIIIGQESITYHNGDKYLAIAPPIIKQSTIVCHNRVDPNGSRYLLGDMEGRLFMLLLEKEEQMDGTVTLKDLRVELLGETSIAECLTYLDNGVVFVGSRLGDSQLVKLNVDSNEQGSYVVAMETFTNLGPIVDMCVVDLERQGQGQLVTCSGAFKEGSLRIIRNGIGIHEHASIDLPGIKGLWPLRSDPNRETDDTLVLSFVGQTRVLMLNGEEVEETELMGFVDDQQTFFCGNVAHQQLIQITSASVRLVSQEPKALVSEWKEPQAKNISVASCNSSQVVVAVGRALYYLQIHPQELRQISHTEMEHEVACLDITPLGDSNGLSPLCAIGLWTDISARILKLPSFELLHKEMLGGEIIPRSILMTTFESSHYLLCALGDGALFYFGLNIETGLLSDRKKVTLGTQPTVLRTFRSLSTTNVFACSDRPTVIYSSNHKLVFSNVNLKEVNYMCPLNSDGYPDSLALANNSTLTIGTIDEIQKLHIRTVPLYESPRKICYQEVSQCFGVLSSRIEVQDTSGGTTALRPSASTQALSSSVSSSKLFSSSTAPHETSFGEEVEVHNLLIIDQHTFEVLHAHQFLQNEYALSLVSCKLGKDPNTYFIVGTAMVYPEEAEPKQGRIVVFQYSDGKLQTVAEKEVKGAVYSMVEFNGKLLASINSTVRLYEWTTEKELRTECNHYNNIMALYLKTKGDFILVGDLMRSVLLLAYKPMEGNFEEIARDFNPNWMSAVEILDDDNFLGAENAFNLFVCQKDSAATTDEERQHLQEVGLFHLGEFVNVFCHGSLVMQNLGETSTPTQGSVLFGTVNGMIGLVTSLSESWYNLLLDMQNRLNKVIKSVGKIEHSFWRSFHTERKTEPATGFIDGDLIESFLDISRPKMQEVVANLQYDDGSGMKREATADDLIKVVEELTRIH
Method in brief: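 Endogenous HiBiT knock-in on BRAF V600E in A375 cells (clone A375.10); 11-point half-log series, top 10 μM, 2, 6 or 24 h at 37° C. Lytic HiBiT luminescence, background-subtracted, normalized to DMSO; 4-parameter fit gives DC50, Emax (residual protein) and IP (inflection point).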

A375-NRAS^Q61K cells = assay: CTGlo Cell Viability Assay, A375-NRAS^Q61K (A375.11) cells, 96 hours; format: cell-based, human; conditions: A375.11 (A375-NRAS^Q61K) cells; for CTGlo A375.11 96 hours Emax / Emax: lowest % viability achieved
Method in brief: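 A375 cells carrying BRAF V600E and NRAS Q61K were seeded at 250 cells/well with a 10-point half-log dose series (max 10 μM final). After 96 h at 37 °C, viability was read as ATP luminescence (CellTiter-Glo), background-subtracted and normalized to DMSO (100%). GI50 from 4-parameter fit; Emax is the lowest % viability.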

[1] = A375.10 cells, BRAF V600E, 2 hours, inflection point, read-out: HiBiT-Degradation A375.10 BRAF 2 hours IP
[2] = A375.10 cells, BRAF V600E, 2 hours, read-out: HiBiT-Degradation A375.10 BRAF 2 hours DC50
[3] = A375.10 cells, BRAF V600E, 2 hours, residual protein remaining
[4] = A375.10 cells, BRAF V600E, 2 hours, residual protein remaining, read-out: HiBiT-Degradation A375.10 BRAF 2 hours Emax
[5] = read-out: HiBiT-Degradation A375.10 BRAF 2 hours Emax, A375.10 cells, BRAF V600E, 2 hours, residual protein remaining
[6] = A375.10 cells, HiBiT, BRAF V600E, 24 hours, read-out: HiBiT-Degradation A375.10 BRAF 24 hours DC50
[7] = A375.10 cells, HiBiT, BRAF V600E, 24 hours, read-out: HiBiT-Degradation A375.10 BRAF 24 hours Emax
[8] = A375.10 cells, HiBiT, BRAF V600E, 24 hours, read-out: HiBiT-Degradation A375.10 BRAF 24 hours IP

DC50 (BRAF V600E; [1]) | DC50 (BRAF V600E; [2]) | HiBiT-Degradation A375.10 BRAF 2 hours Emax (BRAF V600E; [3]) | GI50 (A375-NRAS^Q61K cells) | Emax (BRAF V600E; [4]) | GI50 (A375-NRAS^Q61K cells; Homo sapiens, 96 h) | Emax (BRAF V600E; [5]) | HiBiT-Degradation A375.10 BRAF 2 hours Emax (BRAF V600E) | DC50 (BRAF V600E; [6]) | Emax (BRAF V600E; [7]) | DC50 (BRAF V600E; [8]) | Structure (SMILES) | CTGlo A375.11 96 hours Emax (A375-NRAS^Q61K cells) | Emax (A375-NRAS^Q61K cells; Homo sapiens, 96 h)
< 1000 nM | < 1000 nM | *** (<=50%) | 1000 to 10000 nM | – | – | – | – | – | – | – | CCN(C)S(=O)(=O)Nc1ccc(F)c(C(=O)c2ccc3ncn(C4CC5(CCN(C6CCC(c7cc8c(cc7F)c(N7CCC(=O)NC7=O)nn8C)CC6)CC5)C4)c(=O)c3c2)c1F (single isomer, unassigned) [Compound 183, 3-[7-[4-[3-(2,4-dioxohexahydropyrimidin-1-yl)-5-fluoro-1-methyl-indazol-6-yl]cyclohexyl]-7-azaspiro[3.5]nonan-2-yl]-6-[3-[[ethyl(methyl)sulfamoyl]amino]-2,6-difluoro-benzoyl]-4-oxo-quinazoline] | ** (<90% and >50%) | –
< 1000 nM | > 10000 nM | ** (<90% and >50%) | > 10000 nM | – | – | – | – | – | – | – | CCN(C)S(=O)(=O)Nc1ccc(F)c(Oc2ccc3ncn(C4CC5(CCN(C6CCC(c7cc8c(cc7F)c(N7CCC(=O)NC7=O)nn8C)CC6F)CC5)C4)c(=O)c3c2)c1F (single isomer, unassigned) [Compound 185] | ** (<90% and >50%) | –
< 1000 nM | < 1000 nM | – | – | < 50% | 1000 to 10000 nM | – | – | – | – | – | CCN(C)S(=O)(=O)Nc1ccc(F)c(Oc2ccc3ncn([C@H]4COC5(CCC(N6CCC(c7ccc(NC8CCC(=O)NC8=O)cc7F)C(F)(F)C6)CC5)C4)c(=O)c3c2)c1C#N (single isomer, unassigned) [Compound 190] | – | < 50%
< 1000 nM | < 1000 nM | – | < 1000 nM | – | – | < 50% | – | – | – | – | CCN(C)S(=O)(=O)Nc1ccc(F)c(Oc2ccc3ncn([C@H]4COC5(CCC(N6CC7(CN(c8ccc(NC9CCC(=O)NC9=O)cc8F)C7)C6)CC5)C4)c(=O)c3c2)c1C#N (single isomer, unassigned) [Compound 191] | – | < 50%
< 1000 nM | < 1000 nM | – | > 10000 nM | – | – | – | ** (<90% and >50%) | – | – | – | CCN(C)S(=O)(=O)Nc1ccc(F)c(Oc2ccc3ncn([C@H]4COC5(CCC(N6CC7(CN(c8ccc(NC9CCC(=O)NC9=O)cc8F)C7)C6)CC5)C4)c(=O)c3c2)c1C#N (single isomer, unassigned) [Compound 192] | *** (<=50%) | –
< 1000 nM | > 10000 nM | – | > 10000 nM | 50 to 90% | – | – | – | – | – | – | CCN(C)S(=O)(=O)Nc1ccc(F)c(Oc2ccc3ncc(OCC4(O)CCN(C5CCC(c6cc7c(cc6F)c(N6CCC(=O)NC6=O)nn7C)CC5)CC4)nc3c2)c1C#N (single isomer, unassigned) [Compound 195, 7-[2-cyano-3-[[ethyl(methyl)sulfamoyl]amino]-6-fluoro-phenoxy]-2-[[1-[4-[3-(2,4-dioxohexahydropyrimidin-1-yl)-5-fluoro-1-methyl-indazol-6-yl]cyclohexyl]-4-hydroxy-4-piperidyl]methoxy]quinoxaline] | – | < 50%
< 1000 nM | < 1000 nM | *** (<=50%) | < 1000 nM | – | – | – | – | – | – | – | CCN(C)S(=O)(=O)Nc1ccc(F)c(Oc2ccc3ncc(OCC4(O)CCN(C5CCC(c6cc7c(cc6F)c(N6CCC(=O)NC6=O)nn7C)CC5)CC4)nc3c2)c1C#N (single isomer, unassigned) [Compound 196, 7-[2-cyano-3-[[ethyl(methyl)sulfamoyl]amino]-6-fluoro-phenoxy]-2-[[1-[4-[3-(2,4-dioxohexahydropyrimidin-1-yl)-5-fluoro-1-methyl-indazol-6-yl]cyclohexyl]-4-hydroxy-4-piperidyl]methoxy]quinoxaline] | ** (<90% and >50%) | –
< 1000 nM | < 1000 nM | – | – | < 50% | 1000 to 10000 nM | – | – | – | – | – | CCN(C)S(=O)(=O)Nc1ccc(F)c(C(=O)c2ccc3ncn(C4CC5(CCN(C6CCC(c7ccc(NC8CCC(=O)NC8=O)cc7F)CC6)CC5)C4)c(=O)c3c2)c1F (single isomer, unassigned) [Compound 199, 3-[7-[4-[4-[(2,6-dioxo-3-piperidyl)amino]-2-fluoro-phenyl]cyclohexyl]-7-azaspiro[3.5]nonan-2-yl]-6-[3-[[ethyl(methyl)sulfamoyl]amino]-2,6-difluoro-benzoyl]-4-oxo-quinazoline] | – | 50 to 90%
< 1000 nM | < 1000 nM | *** (<=50%) | 1000 to 10000 nM | – | – | – | – | – | – | – | CCN(C)S(=O)(=O)Nc1ccc(F)c(C(=O)c2ccc3ncn(C4CC5(CCN(C6CCC(c7ccc(NC8CCC(=O)NC8=O)cc7F)CC6)CC5)C4)c(=O)c3c2)c1F (single isomer, unassigned) [Compound 200, 3-[7-[4-[4-[(2,6-dioxo-3-piperidyl)amino]-2-fluoro-phenyl]cyclohexyl]-7-azaspiro[3.5]nonan-2-yl]-6-[3-[[ethyl(methyl)sulfamoyl]amino]-2,6-difluoro-benzoyl]-4-oxo-quinazoline] | ** (<90% and >50%) | –
< 1000 nM | < 1000 nM | – | – | < 50% | 1000 to 10000 nM | – | – | – | – | – | CCN(C)S(=O)(=O)Nc1ccc(F)c(Oc2ccc3ncn(CC4(F)CCN(C5CCC(c6cc7c(cc6F)c(N6CCC(=O)NC6=O)nn7C)CC5)CC4)c(=O)c3c2)c1C#N (single isomer, unassigned) [Compound 201, 6-[2-cyano-3-[[ethyl(methyl)sulfamoyl]amino]-6-fluoro-phenoxy]-3-[[1-[4-[3-(2,4-dioxohexahydropyrimidin-1-yl)-5-fluoro-1-methyl-indazol-6-yl]cyclohexyl]-4-fluoro-4-piperidyl]methyl]-4-oxo-quinazoline] | – | 50 to 90%
< 1000 nM | < 1000 nM | – | > 10000 nM | – | – | < 50% | – | < 1000 nM | < 50% | < 1000 nM | CCN(C)S(=O)(=O)Nc1ccc(F)c(Oc2ccc3ncn(C4CC5(C4)CN(C4CCC(c6cc7c(cc6F)c(N6CCC(=O)NC6=O)nn7C)CC4)C5)c(=O)c3c2)c1C#N (single isomer, unassigned) [Compound 203, 6-[2-cyano-3-[[ethyl(methyl)sulfamoyl]amino]-6-fluoro-phenoxy]-3-[2-[4-[3-(2,4-dioxohexahydropyrimidin-1-yl)-5-fluoro-1-methyl-indazol-6-yl]cyclohexyl]-2-azaspiro[3.3]heptan-6-yl]-4-oxo-quinazoline] | – | 50 to 90%
< 1000 nM | > 10000 nM | ** (<90% and >50%) | > 10000 nM | – | – | – | – | – | – | – | CCN(C)S(=O)(=O)Nc1ccc(F)c(Oc2ccc3ncn(C4CC5(CCN(C6CCC(c7cc8c(cc7F)c(N7CCC(=O)NC7=O)nn8C)CC6)C5)C4)c(=O)c3c2)c1C#N (single isomer, unassigned) [Compound 205, 6-[2-cyano-3-[[ethyl(methyl)sulfamoyl]amino]-6-fluoro-phenoxy]-3-[6-[4-[3-(2,4-dioxohexahydropyrimidin-1-yl)-5-fluoro-1-methyl-indazol-6-yl]cyclohexyl]-6-azaspiro[3.4]octan-2-yl]-4-oxo-quinazoline] | – | 50 to 90%
< 1000 nM | < 1000 nM | – | < 1000 nM | < 50% | – | – | – | < 1000 nM | < 50% | < 1000 nM | CCN(C)S(=O)(=O)Nc1ccc(F)c(Oc2ccc3ncn(C4CC5(CCN(C6CCC(c7cc8c(cc7F)c(N7CCC(=O)NC7=O)nn8C)CC6)C5)C4)c(=O)c3c2)c1C#N (single isomer, unassigned) [Compound 206, 6-[2-cyano-3-[[ethyl(methyl)sulfamoyl]amino]-6-fluoro-phenoxy]-3-[6-[4-[3-(2,4-dioxohexahydropyrimidin-1-yl)-5-fluoro-1-methyl-indazol-6-yl]cyclohexyl]-6-azaspiro[3.4]octan-2-yl]-4-oxo-quinazoline] | ** (<90% and >50%) | –
< 1000 nM | < 1000 nM | – | – | < 50% | < 1000 nM | – | – | – | – | – | CN(CCO)S(=O)(=O)Nc1ccc(F)c(Oc2ccc3ncn([C@H]4COC5(CCC(N6CCC(c7cc8c(cc7F)c(N7CCC(=O)NC7=O)nn8C)C(F)(F)C6)CC5)C4)c(=O)c3c2)c1C#N (single isomer, unassigned) [Compound 212] | – | 50 to 90%
< 1000 nM | < 1000 nM | *** (<=50%) | < 1000 nM | – | – | – | – | – | – | – | CN(CCO)S(=O)(=O)Nc1ccc(F)c(Oc2ccc3ncn([C@H]4COC5(CCC(N6CCC(c7cc8c(cc7F)c(N7CCC(=O)NC7=O)nn8C)C(F)(F)C6)CC5)C4)c(=O)c3c2)c1C#N (single isomer, unassigned) [Compound 214] | *** (<=50%) | –
